Measurements from BindingDB's records for patent US20250115583 (Corcept Therapeutics, 2025).

Molecular target: T1, Glucocorticoid receptor (Homo sapiens, UniProt P04150)
T1 sequence (P04150 whole entry): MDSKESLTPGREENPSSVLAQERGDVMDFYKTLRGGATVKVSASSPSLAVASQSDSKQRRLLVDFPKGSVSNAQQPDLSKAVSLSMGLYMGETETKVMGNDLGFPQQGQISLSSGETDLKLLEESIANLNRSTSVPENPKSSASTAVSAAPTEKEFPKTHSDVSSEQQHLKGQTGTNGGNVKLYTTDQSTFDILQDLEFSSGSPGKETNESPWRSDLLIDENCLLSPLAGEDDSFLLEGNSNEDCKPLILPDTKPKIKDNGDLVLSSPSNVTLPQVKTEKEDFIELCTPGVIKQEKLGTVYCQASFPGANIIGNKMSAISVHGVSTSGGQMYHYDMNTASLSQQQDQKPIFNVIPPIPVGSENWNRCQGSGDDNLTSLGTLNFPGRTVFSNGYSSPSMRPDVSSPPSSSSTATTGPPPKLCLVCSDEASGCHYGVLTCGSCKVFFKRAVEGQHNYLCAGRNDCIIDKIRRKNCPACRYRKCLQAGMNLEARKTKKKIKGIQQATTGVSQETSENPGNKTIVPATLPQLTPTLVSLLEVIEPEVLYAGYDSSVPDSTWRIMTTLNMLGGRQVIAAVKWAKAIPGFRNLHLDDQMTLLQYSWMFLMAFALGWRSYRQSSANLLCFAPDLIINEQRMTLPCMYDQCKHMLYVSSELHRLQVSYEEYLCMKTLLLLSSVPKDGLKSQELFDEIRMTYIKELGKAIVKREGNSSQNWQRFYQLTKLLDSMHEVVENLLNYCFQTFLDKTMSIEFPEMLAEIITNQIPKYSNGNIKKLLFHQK
Experiment: GR Binding Assay
Procedure: Binding of test compounds to the glucocorticoid receptor (GR) is determined using a fluorescence polarisation (FP) assay utilising a recombinant ligand binding domain (LBD) of GR. The test compounds are assessed by their ability to displace a fluorescently tagged ligand and detection of the resulting decrease in fluorescence polarisation.

SMILES	Ki [nM]
Cc1cc2c(cnn2-c2ccc(F)cc2)cc1[C@@]12CN(S(=O)(=O)c3cnn(C)n3)C[C@@H]1[C@H]2C(=O)N1CCC1 [US20250115583, Example 59]	360
Cc1cc2c(cnn2-c2ccc(F)cc2)cc1[C@@]12CN(C(=O)c3nn(C)cc3Cl)C[C@@H]1[C@H]2c1ccccc1 [US20250115583, Example 178]	19
